Usually GI50 stands for the concentration at which growth is held to half of that of the control. High values mean lower sensitivity of the cells, low ones greater sensitivity of the cells.

System in the first assay: not listed separately
In words: Cytotoxicity against human DWD cells by sulforhodamine B method. Type of assay: functional.
For `COc1cc2c(cc1OCCCCCOc1ccc3c(c1)CC[C@@H]1[C@@H]3CC[C@]3(C)[C@@H](O)CC[C@@H]13)N=C[C@@H]1CCCN1C2=O`, the GI50 is 0.18 µM.

For `COc1cc2c(cc1OCCCCCN1CCN(CCCCCOc3ccc4c(c3)CC[C@@H]3[C@@H]4CC[C@]4(C)[C@@H](O)CC[C@@H]34)CC1)N=C[C@@H]1CCCN1C2=O`, the GI50 was determined as 0.17 µM.

Consider `COc1cc2c(cc1OCc1cn(CCCOc3ccc4c(c3)CC[C@@H]3[C@@H]4CC[C@]4(C)[C@@H](O)CC[C@@H]34)nn1)N=C[C@@H]1CCCN1C2=O`, for which the GI50 was 0.16 µM.

Another assay has as its system A549. In words: Cytotoxicity against human A549 cells by sulforhodamine B method. Type of assay: functional. Background: The SRB assay estimates cell density from bound dye.
On to `COc1cc2c(cc1OCCCCCOc1ccc3c(c1)CC[C@@H]1[C@@H]3CC[C@]3(C)[C@@H](O)CC[C@@H]13)N=C[C@@H]1CCCN1C2=O`, for which the GI50 is 2.2 µM. That is a single-digit micromolar value.

The molecule `COc1cc2c(cc1OCCCCCN1CCN(CCCCCOc3ccc4c(c3)CC[C@@H]3[C@@H]4CC[C@]4(C)[C@@H](O)CC[C@@H]34)CC1)N=C[C@@H]1CCCN1C2=O` gave a GI50 of 0.16 µM.

`COc1cc2c(cc1OCc1cn(CCCOc3ccc4c(c3)CC[C@@H]3[C@@H]4CC[C@]4(C)[C@@H](O)CC[C@@H]34)nn1)N=C[C@@H]1CCCN1C2=O`: growth was halved (GI50) at 0.18 µM.

A further assay relates to HOP-62. Nature of the assay: Cytotoxicity against human HOP62 cells by sulforhodamine B method. Type of assay: functional.
Molecule `COc1cc2c(cc1OCCCCCOc1ccc3c(c1)CC[C@@H]1[C@@H]3CC[C@]3(C)[C@@H](O)CC[C@@H]13)N=C[C@@H]1CCCN1C2=O` showed a GI50 of 2.24 µM.

The molecule `COc1cc2c(cc1OCCCCCN1CCN(CCCCCOc3ccc4c(c3)CC[C@@H]3[C@@H]4CC[C@]4(C)[C@@H](O)CC[C@@H]34)CC1)N=C[C@@H]1CCCN1C2=O` showed a GI50 of 1.17 µM.

Regarding `COc1cc2c(cc1OCc1cn(CCCOc3ccc4c(c3)CC[C@@H]3[C@@H]4CC[C@]4(C)[C@@H](O)CC[C@@H]34)nn1)N=C[C@@H]1CCCN1C2=O`, the GI50 worked out at 1.18 µM. This GI50 and that of the molecule before are within 1.5-fold of each other.

The next assay has as its system SiHa. Nature of the assay: Cytotoxicity against human SiHa cells by sulforhodamine B method. It counts as functional.
In the case of `COc1cc2c(cc1OCCCCCOc1ccc3c(c1)CC[C@@H]1[C@@H]3CC[C@]3(C)[C@@H](O)CC[C@@H]13)N=C[C@@H]1CCCN1C2=O`, growth was halved (GI50) at 2.18 µM.

Molecule `COc1cc2c(cc1OCCCCCN1CCN(CCCCCOc3ccc4c(c3)CC[C@@H]3[C@@H]4CC[C@]4(C)[C@@H](O)CC[C@@H]34)CC1)N=C[C@@H]1CCCN1C2=O` had a concentration for 50% growth inhibition (GI50) of 0.17 µM. This GI50 lies about 13-fold lower than the previous one.

In turn, `COc1cc2c(cc1OCc1cn(CCCOc3ccc4c(c3)CC[C@@H]3[C@@H]4CC[C@]4(C)[C@@H](O)CC[C@@H]34)nn1)N=C[C@@H]1CCCN1C2=O` displayed a GI50 of 1.14 µM.

Another assay concerns KB. In words: Cytotoxicity against human KB cells by sulforhodamine B method. Type of assay: functional.
Molecule `COc1cc2c(cc1OCCCCCOc1ccc3c(c1)CC[C@@H]1[C@@H]3CC[C@]3(C)[C@@H](O)CC[C@@H]13)N=C[C@@H]1CCCN1C2=O` gave a GI50 of 2.13 µM.

The molecule `COc1cc2c(cc1OCCCCCN1CCN(CCCCCOc3ccc4c(c3)CC[C@@H]3[C@@H]4CC[C@]4(C)[C@@H](O)CC[C@@H]34)CC1)N=C[C@@H]1CCCN1C2=O` gave a GI50 of 0.19 µM.

Take `COc1cc2c(cc1OCc1cn(CCCOc3ccc4c(c3)CC[C@@H]3[C@@H]4CC[C@]4(C)[C@@H](O)CC[C@@H]34)nn1)N=C[C@@H]1CCCN1C2=O`: the GI50 was 0.31 µM.

The test system of another assay is PC-3. In words: Cytotoxicity against human PC3 cells by sulforhodamine B method. Type of assay: functional.
`COc1cc2c(cc1OCCCCCOc1ccc3c(c1)CC[C@@H]1[C@@H]3CC[C@]3(C)[C@@H](O)CC[C@@H]13)N=C[C@@H]1CCCN1C2=O` came in with a GI50 of 2.19 µM. This counts as single-digit micromolar.

For the molecule `COc1cc2c(cc1OCCCCCN1CCN(CCCCCOc3ccc4c(c3)CC[C@@H]3[C@@H]4CC[C@]4(C)[C@@H](O)CC[C@@H]34)CC1)N=C[C@@H]1CCCN1C2=O`, growth was halved (GI50) at 0.19 µM.

`COc1cc2c(cc1OCc1cn(CCCOc3ccc4c(c3)CC[C@@H]3[C@@H]4CC[C@]4(C)[C@@H](O)CC[C@@H]34)nn1)N=C[C@@H]1CCCN1C2=O` had a GI50 of 0.19 µM.

For the next assay, the system named is COLO 205. Nature of the assay: Cytotoxicity against human COLO205 cells by sulforhodamine B method. Type of assay: functional.
`COc1cc2c(cc1OCCCCCOc1ccc3c(c1)CC[C@@H]1[C@@H]3CC[C@]3(C)[C@@H](O)CC[C@@H]13)N=C[C@@H]1CCCN1C2=O` returned a GI50 of 0.19 µM.

In the case of `COc1cc2c(cc1OCCCCCN1CCN(CCCCCOc3ccc4c(c3)CC[C@@H]3[C@@H]4CC[C@]4(C)[C@@H](O)CC[C@@H]34)CC1)N=C[C@@H]1CCCN1C2=O`, the GI50 was 1.16 µM.

Molecule `COc1cc2c(cc1OCc1cn(CCCOc3ccc4c(c3)CC[C@@H]3[C@@H]4CC[C@]4(C)[C@@H](O)CC[C@@H]34)nn1)N=C[C@@H]1CCCN1C2=O` returned a GI50 of 0.17 µM.

The next assay deals with MCF7. Nature of the assay: Cytotoxicity against human MCF7 cells by sulforhodamine B method. Type of assay: functional.
`COc1cc2c(cc1OCCCCCOc1ccc3c(c1)CC[C@@H]1[C@@H]3CC[C@]3(C)[C@@H](O)CC[C@@H]13)N=C[C@@H]1CCCN1C2=O`: the GI50 was 0.17 µM.

Take `COc1cc2c(cc1OCCCCCN1CCN(CCCCCOc3ccc4c(c3)CC[C@@H]3[C@@H]4CC[C@]4(C)[C@@H](O)CC[C@@H]34)CC1)N=C[C@@H]1CCCN1C2=O`: the GI50 is 0.14 µM.

For `COc1cc2c(cc1OCc1cn(CCCOc3ccc4c(c3)CC[C@@H]3[C@@H]4CC[C@]4(C)[C@@H](O)CC[C@@H]34)nn1)N=C[C@@H]1CCCN1C2=O`, growth was halved (GI50) at 0.12 µM.

System in a further assay: not listed separately
Nature of the assay: Cytotoxicity against human Gurav cells by sulforhodamine B method. Type of assay: functional.
With `COc1cc2c(cc1OCCCCCOc1ccc3c(c1)CC[C@@H]1[C@@H]3CC[C@]3(C)[C@@H](O)CC[C@@H]13)N=C[C@@H]1CCCN1C2=O`, growth was halved (GI50) at 2.04 µM. That is a single-digit micromolar value.

The molecule `COc1cc2c(cc1OCCCCCN1CCN(CCCCCOc3ccc4c(c3)CC[C@@H]3[C@@H]4CC[C@]4(C)[C@@H](O)CC[C@@H]34)CC1)N=C[C@@H]1CCCN1C2=O` gave a GI50 of 0.19 µM. This GI50 lies about 11-fold lower than the previous one.

Consider `COc1cc2c(cc1OCc1cn(CCCOc3ccc4c(c3)CC[C@@H]3[C@@H]4CC[C@]4(C)[C@@H](O)CC[C@@H]34)nn1)N=C[C@@H]1CCCN1C2=O`, for which it took 0.17 µM to inhibit growth by half (GI50). This GI50 and that of the molecule before are within 1.5-fold of each other.

Another assay deals with ZR-75-1. In words: Cytotoxicity against human ZR-75-1 cells by sulforhodamine B method. It counts as functional.
In turn, `COc1cc2c(cc1OCCCCCOc1ccc3c(c1)CC[C@@H]1[C@@H]3CC[C@]3(C)[C@@H](O)CC[C@@H]13)N=C[C@@H]1CCCN1C2=O` registered a GI50 of 1.19 µM.

Molecule `COc1cc2c(cc1OCCCCCN1CCN(CCCCCOc3ccc4c(c3)CC[C@@H]3[C@@H]4CC[C@]4(C)[C@@H](O)CC[C@@H]34)CC1)N=C[C@@H]1CCCN1C2=O` came in with a GI50 of 0.17 µM.

Regarding `COc1cc2c(cc1OCc1cn(CCCOc3ccc4c(c3)CC[C@@H]3[C@@H]4CC[C@]4(C)[C@@H](O)CC[C@@H]34)nn1)N=C[C@@H]1CCCN1C2=O`, halving of growth (GI50) required 0.19 µM.

In the next assay the test system is A2780. In words: Cytotoxicity against human A2780 cells by sulforhodamine B method. It counts as functional.
`COc1cc2c(cc1OCCCCCOc1ccc3c(c1)CC[C@@H]1[C@@H]3CC[C@]3(C)[C@@H](O)CC[C@@H]13)N=C[C@@H]1CCCN1C2=O` showed a GI50 of 1.19 µM.

`COc1cc2c(cc1OCCCCCN1CCN(CCCCCOc3ccc4c(c3)CC[C@@H]3[C@@H]4CC[C@]4(C)[C@@H](O)CC[C@@H]34)CC1)N=C[C@@H]1CCCN1C2=O` came in with a concentration for 50% growth inhibition (GI50) of 1.7 µM.

With `COc1cc2c(cc1OCc1cn(CCCOc3ccc4c(c3)CC[C@@H]3[C@@H]4CC[C@]4(C)[C@@H](O)CC[C@@H]34)nn1)N=C[C@@H]1CCCN1C2=O`, growth was halved (GI50) at 0.17 µM. This GI50 is about 10-fold lower than that of the molecule before.
